Legend:
IBS-D patients = details: cited from earlier work
μ opioid receptor [1] = molecular target: T1, μ opioid receptor (Homo sapiens, UniProt P35372); details: briefing documents to FDA advisory committee; cited from earlier work
Target sequence in this assay (P35372 whole entry, species assumed): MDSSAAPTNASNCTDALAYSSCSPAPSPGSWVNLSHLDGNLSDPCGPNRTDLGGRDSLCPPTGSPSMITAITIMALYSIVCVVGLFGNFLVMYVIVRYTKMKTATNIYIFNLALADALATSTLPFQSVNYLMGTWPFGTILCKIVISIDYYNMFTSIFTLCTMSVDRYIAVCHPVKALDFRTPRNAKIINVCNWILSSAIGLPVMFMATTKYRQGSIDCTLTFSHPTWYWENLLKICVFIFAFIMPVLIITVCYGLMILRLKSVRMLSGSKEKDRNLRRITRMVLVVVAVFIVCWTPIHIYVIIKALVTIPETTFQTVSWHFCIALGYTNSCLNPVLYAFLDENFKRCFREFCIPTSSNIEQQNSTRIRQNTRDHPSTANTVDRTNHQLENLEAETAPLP

[2] = Stress stability assay of the buprenorphine dimer (tap water, acid, base, heat); format: physicochemical; details: 1N HCl, 5% aqueous sodium bicarbonate, room temperature and 140° F., up to 30 minutes
Method: This study facilitated the understanding of the ease with which a potential abuser could cleave the dimer using household chemicals such as baking soda, acid or simple heating in water. Buprenorphine dimer stability was assessed at room temperature in untreated tap water and in presence of acid (1N HCl) or base (5% aqueous sodium bicarbonate).

male CD-1 mice [3] = assay: Stress-induced fecal output; format: in vivo
Excerpt: The animals used in the studies were male CD-1 mice, average weight about 30 to 35 g, with an average of 5 mice per dose group. The mice were generally housed in colony housing where they are housed 3 per cage in polycarbonate cages with access to food and water ad lib.
On the day of the experiment the mice were transported to the procedure room where they were individually housed in 20 cm wide×20 cm deep×15 cm tall cages, equipped with a wire mesh bottom after intragastric administration of test compounds. During the test the animals were allowed access to water only ad lib. The wire mesh bottomed tall cage creates a novel environment which induces stress in mice. The number of pellets excreted was determined on an hourly basis.

[4] = molecular target: T2, human δ subtype 2 opioid receptor (Homo sapiens, UniProt P41143); assay: Human δ opioid receptor binding assay (tritiated naltrindole displacement)
T2 construct: purchased Perkin Elmer RBHODM400UA; host or cells: Chinese Hamster Ovary cells (membranes)
T2 sequence (P41143 whole entry): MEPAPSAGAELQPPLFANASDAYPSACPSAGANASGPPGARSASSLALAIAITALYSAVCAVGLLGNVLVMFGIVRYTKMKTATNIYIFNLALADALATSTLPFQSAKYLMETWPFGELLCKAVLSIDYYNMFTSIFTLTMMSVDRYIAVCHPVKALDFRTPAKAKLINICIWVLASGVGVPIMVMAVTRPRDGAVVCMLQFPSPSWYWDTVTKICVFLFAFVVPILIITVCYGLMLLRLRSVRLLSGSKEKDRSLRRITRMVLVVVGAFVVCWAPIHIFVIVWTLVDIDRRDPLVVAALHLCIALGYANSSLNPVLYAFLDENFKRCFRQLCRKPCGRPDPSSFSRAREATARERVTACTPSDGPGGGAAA
Method: The assay was designed to test the ability of a compound to interfere with the binding of tritiated naltrindole to the human δ subtype 2 opioid receptor. Membranes from Chinese Hamster Ovary cells expressing the human δ subtype 2 opioid receptor (Perkin Elmer #RBHODM400UA) were homogenized in assay buffer (50 mM Tris, pH 7.5 with 5 mM MgCl2) using a glass tissue grinder, Teflon pestle and Steadfast Stirrer (Fisher Scientific). The concentration of membranes was adjusted to 100 μg/mL in the assay plate, a 96 well round bottom polypropylene plate. Compounds to be tested were solubilized in DMSO, 10 mM, then diluted in assay buffer to 6× the desired final concentration. The ligand, ^3H-natrindole (Perkin Elmer #NET-1065) was also diluted in assay buffer to 6 nM. Aliquots of ^3H-natrindole (50 μL) were transferred to the assay plate containing the membranes in duplicate. The assay plate was incubated for 30 minutes at room temperature. A GF/C 96 well filter plate (Perkin Elmer #6005174) was pretreated with 0.3% polyethylenimine for 30 min. The contents of the assay plate were filtered through the filter plate using a Packard Filtermate Harvester, and washed 3 times with 0.9% saline at 4° C. The filter plate was dried, the underside sealed, and a 30 μL MictoS=scint 20 (Packard #6013621) was added to each well. A Topcount-NXT Microplate Scintillation Counter (Packard) was used to measure emitted energies in the range of 2.9 to 35 KeV. Results are compared to maximum binding, wells receiving no inhibitors. Nonspecific binding was determined in the presence of 1 μM unlabelled Natrindole. […] Relative to the μ and κ opioid receptors, the dimer has poor affinity for the δ receptor.

human μ receptors [5] = molecular target: T3, human μ receptors (Homo sapiens, UniProt P35372); assay: μ opioid receptor agonist functional assay: [35S]GTPγS binding in CHO-hMOR cell membranes; format: biochemical; details: FIG. 11
T3 construct: purchased Receptor Biology Inc. (Baltimore Md.); host or cells: CHO-hMOR cell membranes
T3 sequence (P35372 whole entry): as the sequence (P35372 whole entry, species assumed) above
Method: (§1) This example illustrates the ability of the buprenorphine dimer provided herein to stimulate the p-opioid receptor-mediated signaling. Briefly, CHO-hMOR cell membranes were purchased from Receptor Biology Inc. (Baltimore Md.). About 10 mg/ml of membrane protein was suspended in 10 mM TRIS-HCl pH 7.2, 2 mM EDTA, 10% sucrose, and the suspension kept on ice. One mL of membranes was added to 15 mL cold binding assay buffer containing 50 mM HEPES, pH 7.6, 5 mM MgCl2, 100 mM NaCl, 1 mM DTT and 1 mM EDTA. The membrane suspension was homogenized with a polytron and centrifuged at 3000 rpm for 10 min. The supernatant was then centrifuged at 18,000 rpm for 20 min. The pellet was resuspended in 10 mL assay buffer with a polytron. […]
(§2) The buprenorphine dimer was tested for function as an antagonist by evaluating its potential to inhibit agonist-stimulated GTPγS binding using D-Phe-Cys-Tyr-D-Trp-Orn-Thr-Pen-Thr-NH2 (CTOP) as the standard. Radioactivity was quantified on a Packard Top Count. The following parameters are calculated: % Stimulation=[(test compound cpm−non-specific cpm)/(basal cpm−non-specific cpm)]*100 % Inhibition=(% stimulation by 1 μM SNC80−% stimulation by 1 μM SNC80 in presence of test compound)*100/(% stimulation by 1 μM SNC80−100).
(§3) EC50 was calculated using GraphPad Prism.

[6] = In vivo pharmacokinetic study, oral and IV; details: CD-1 mice, 10 mg/kg IV and oral gavage
Method: Animals used in these animal pharmacokinetic studies were CD-1 mice (about 35 gms, n=3 per time point). Drugs tested were buprenorphine and the buprenorphine dimer. Dose 10 mg/kg IV and oral gavage. Blood was collected at time 0, 30 min and 1, 2, 6 and 24 hours. Blood samples for the drug were analyzed after harvesting the plasma and by LC/MS/MS as follows:
Standard curve was prepared in mouse plasma spiked with either the test drugs (10-25000 nM). Plasma samples (50 μL) were extracted in 300 μL acetonitrile containing losartan or buprenorphine-d4 as internal standard. Extracts were centrifuged at 16000×g at 4° C. for 5 minutes. Supernatants (250 μL) were transferred to a new tube and dried under N2 at 45° C. for 1 hour. Samples were reconstituted with 100 μL of 30% acetonitrile, vortexed and centrifuged. Supernatants (90 μL) were transferred to LC vials and 10 μL is injected on LC/MS.

human liver microsomes [7] = assay: Metabolic stability of buprenorphine dimer in human liver microsomes; details: 1 μM, human liver microsomes 1 mg protein/mL, 37 °C, with or without NADPH co-factor, up to 2 hours
Method: Incubations of the dimer (e.g., 1 μM) with human liver microsomes (e.g., 1 mg protein/mL) were carried out using a Tecan Liquid Handling System (Tecan), or equivalent, at 37±1° C. in 0.2-mL incubation mixtures (final volume) containing potassium phosphate buffer (50 mM, pH 7.4), MgCl2 (3 mM) and EDTA (1 mM, pH 7.4) with and without a cofactor, NADPH-generating system, at the final concentrations indicated in a 96-well plate format. The NADPH-generating system consisted of NADP (1 mM, pH 7.4), glucose-6-phosphate (5 mM, pH 7.4) and glucose-6-phosphate dehydrogenase (1 Unit/mL). The buprenorphine dimer was dissolved in aqueous methanolic solution (methanol 0.5% v/v, or less). […] Zero-time incubations served as 100% value to determine percent loss of substrate. […] The samples were subjected to centrifugation (e.g., 920×g for 10 min at 10° C.) and the supernatant fractions analyzed by LC-MS/MS. […]
The above samples were analyzed by an LC-MS/MS method. […] Results were determined by a comparison of peak ratios over the time course of the experiment (typically reported as “% Parent Remaining”).
Data were calculated with a LIMS (includes Galileo, Thermo Fisher Scientific Inc. and reporting tool, Crystal Reports, SAP), the spreadsheet computer program Microsoft Excel (Microsoft Corp.) or equivalent. […]

male CD-1 mice [8] = assay: Effect on post-inflammatory altered GI transit time (mustard oil); format: in vivo; details: 25 mg per kg oral, mustard oil treated mice
Method: This test was designed to measure the effect of test substance on gastrointestinal hypersensitivity following inflammation. Post-inflammatory altered GI transit was induced in male CD-1 mice by injecting freshly opened oil of mustard (95% pure allyl isothiocyanate, 0.5% in ethanol). The effect of stress on the post-inflammatory GI tract was tested 3-4 weeks after dosing. […] The effect of the test substance was measured after oral administration (intragastric gavage) and subjecting animals to environmental stress by housing them in cages (20 cm wide×20 cm deep×15 cm tall), equipped with a wire mesh bottom. During the test the animals were allowed access to water ad lib. The wire mesh bottomed tall cage creates a novel environment which induces stress in mice. The number of pellets excreted is determined on hourly to two-hourly basis.

human μ receptors [9] = molecular target: T3, human μ receptors; assay: μ opioid receptor antagonist functional assay: [35S]GTPγS binding in CHO-hMOR cell membranes; format: biochemical; details: inhibition of agonist-stimulated GTPγS binding, FIG. 12
Method: as §1, §2, §3

μ opioid receptor [10] = molecular target: T1, μ opioid receptor; assay: Human μ opioid receptor binding assay (3H-Naloxone displacement); parameters: purchased Perkin Elmer RBHOMM400UA; host or cells: Chinese Hamster Ovary cells (membranes); details: FIG. 9
Target sequence in this assay (P35372 whole entry): as the sequence (P35372 whole entry, species assumed) above
Method: Membranes from Chinese Hamster Ovary cells expressing the human μ opioid receptor (Perkin Elmer #RBHOMM400UA) were homogenized in assay buffer (50 mM Tris, pH 7.5 with 5 mM MgCl2) using glass tissue grinder, Teflon pestle and Steadfast Stirrer (Fisher Scientific). The concentrates of the membranes were adjusted to 300 μg/mL in assay plate, a 96 well round bottom polypropylene plate. […] From the premix plate 50 μL was transferred to the assay plate containing the membranes, in duplicate. The assay plate was incubated for 2 h at room temperature. […] The contents of the assay plate were filtered through the filter plate using a Packard Filtermate Harvester, and washed 3 times with 0.9% saline at 4° C. […] A Topcount-NXT Microplate Scintillation Counter (Packard) was used to measure emitted energies in the range of 2.9 to 35 KeV. Results were compared to maximum binding, wells receiving no inhibitions.

mice = details: mildly stressed mice
Excerpt: In the study a group mice were subjected to mild stress, which normally induces diarrhea and gastrointestinal motility measured by number of fecal pellets excreted per hour.

human liver microsomes [11] = details: approximately 1 μM, human liver microsomes 1 mg protein/ml, up to 1 hour
Method: Incubations of the dimer (e.g., 1 μM) with human liver microsomes (e.g., 1 mg protein/mL) were carried out using a Tecan Liquid Handling System (Tecan), or equivalent, at 37±1° C. in 0.2-mL incubation mixtures (final volume) containing potassium phosphate buffer (50 mM, pH 7.4), MgCl2 (3 mM) and EDTA (1 mM, pH 7.4) with and without a cofactor, NADPH-generating system, at the final concentrations indicated in a 96-well plate format. The NADPH-generating system consisted of NADP (1 mM, pH 7.4), glucose-6-phosphate (5 mM, pH 7.4) and glucose-6-phosphate dehydrogenase (1 Unit/mL). […] Zero-time incubations served as 100% value to determine percent loss of substrate. Incubations were carried out in triplicate with an exception for zero-time samples (which were incubated in quadruplicate). Zero-cofactor (no NADPH) incubations were performed at zero-time and the longest time point. The samples were subjected to centrifugation (e.g., 920×g for 10 min at 10° C.) and the supernatant fractions analyzed by LC-MS/MS. Additional incubations were carried out with microsomes and a marker substrate (e.g., dextromethorphan to monitor substrate loss) as a positive control to determine if the test system was metabolically competent.
The incubation medium was assayed by LC/MS/MS for the formation of naloxone over time.

[12] = room temperature, tap water, 1N HCl or 5% aqueous sodium bicarbonate

## COc1ccc(CN(C(=O)[C@@H](N)Cc2c(C)cc(C(N)=O)cc2C)[C@@H](C)c2ncc(-c3ccccc3)[nH]2)cc1C(=O)O [Eluxadoline]
IBS-D patients; Phase II trials
  pancreatitis cases: several cases of pancreatitis
IBS-D patients; Phase III testing, IBS-D
  Phase III efficacy endpoints: met primary endpoints of improvement in stool consistency and reduction of abdominal pain

## C[N@+]1(CC2CC2)CC[C@]23c4c5ccc(O)c4O[C@H]2C(=O)CC[C@@]3(O)[C@H]1C5 [Methylnaltrexone Bromide]
μ opioid receptor [1]
  Ki: 42 nM

## CO[C@]12CC[C@@]3(C[C@@H]1[C@](C)(O)C(C)(C)C)[C@H]1Cc4ccc(OCCOc5ccc6c7c5O[C@H]5[C@@]8(OC)CC[C@@]9(C[C@@H]8[C@](C)(O)C(C)(C)C)[C@@H](C6)N(CC6CC6)CC[C@]759)c5c4[C@@]3(CCN1CC1CC1)[C@H]2O5 [buprenorphine dimer]
[2]
  stability / degradation to buprenorphine: remained stable and did not degrade to release buprenorphine
Male CD-1 mice [3]; FIG. 15
  dose dependence of fecal output: decreases with dose
Male CD-1 mice [3]; oral, 25 and 50 mg per kg, stressed male CD-1 mice
  fecal output versus placebo (vehicle): significantly reduced the fecal output
[4]
  IC50: 7.6 nM
  Ki: 2.87 nM
  affinity for the δ receptor relative to the μ and κ opioid receptors: poor affinity
Human μ receptors [5]
  μ agonist function: potent μ agonist
[6]
  absolute bioavailability (ratio of the area under the concentration curve after oral and IV dose): ≤ 1%
Human liver microsomes [7]
  stability in presence of microsomal enzymes (% Parent Remaining): relatively stable
Male CD-1 mice [8]
  gastrointestinal motility as measured by fecal output: significantly decreases gastrointestinal motility
Male CD-1 mice [8]; 2 hours
  gastrointestinal motility as measured by fecal output at 2 hours: continues to inhibit gastrointestinal motility with statistically significant results
Human μ receptors [9]
  μ antagonist function: does not function as a μ-antagonist
μ opioid receptor [10]
  affinity for the opioid μ receptor: significant affinity

## CO[C@]12CC[C@@]3(C[C@@H]1[C@](C)(O)C(C)(C)C)[C@H]1Cc4ccc(O)c5c4[C@@]3(CCN1CC1CC1)[C@H]2O5 [buprenorphine, Buprenorphine, reference compound]
[6]
  absolute bioavailability (ratio of the area under the concentration curve after oral and IV dose): about 30%

## CN(C)C(=O)C(CCN1CCC(O)(c2ccc(Cl)cc2)CC1)(c1ccccc1)c1ccccc1 [loperamide, reference compound]
mice
  number of pellets expelled versus control (vehicle) animals: significantly less

## C=CCN1CC[C@]23c4c5ccc(OCCOc6ccc7c8c6O[C@H]6C(=O)CC[C@@]9(O)[C@@H](C7)N(CC=C)CC[C@]869)c4O[C@H]2C(=O)CC[C@@]3(O)[C@H]1C5 [naloxone dimer]
Human liver microsomes [11]
  formation of naloxone over time: no evidence of formation naloxone over time
[12]
  stability / degradation to naloxone: does not appreciably degrade to naloxone
mice; comparable to control by hour 3 or later
  reversal of loperamide-induced constipation (fecal pellets excreted per hour): reversed the constipating effects

From patent US9309256B2, “Pharmaceutically active dimers linked through phenolic hydroxyl groups” (OrphoMed LLC, priority 2014, dated 2016)
